Patent US20150366911A1, “METHODS FOR REJUVENATING RED BLOOD CELLS” (Biomet Biologics, LLC, priority 2013, published 2015)

Tests used:
[1] = Plasma concentration in vivo after transfusion of one unit of 2,3-DPG enhanced cells; settings: Total Plasma Volume = 2.28 Liters
Protocol: A Y-type tube set is assembled is assembled as shown in FIG. 2 and connected to a unit of RBCs. The tube set includes a 0.2 μm filter. RBC enhancement composition (Rejuvesol® Solution) is transferred to the RBCs via a vented spike to form a treated blood composition. The treated blood composition is mixed and incubated, forming an incubated blood composition. The treated blood composition is centrifuged to form a concentration of RBC and a supernatant. The supernatant is transferred to an empty waste bag, and the concentration of RBCs was resuspended in 100 mL additive solution that was transferred from a second transfer bag.
A Y-type tube set is assembled as shown in FIG. 2 and connected to a unit of 250 mL RBCs. 100 mL additive solution, comprising saline, was transferred to the RBCs. The tube set includes a 0.2 μm filter. 50 mL RBC enhancement composition (Rejuvesol® Solution) was transferred to the RBCs via a vented spike to form a treated blood composition. The treated blood composition was mixed and incubated, forming an incubated blood composition. The incubated blood composition was then diluted with 200 mL wash solution from a first transfer bag containing 200 mL wash solution, forming a diluted blood composition. The diluted blood composition was centrifuged to form a concentration of RBCs and a supernatant. The supernatant was transferred to the now empty first transfer bag, and the concentration of RBCs was resuspended in 100 mL additive solution, which was transferred from a second transfer bag.
Blood processed according to Examples 1 and 2 are analyzed for concentrations of rejuvenation materials in the final processed RBC suspensions, with the following results.

[2] = Total Plasma Volume = 2.28 Liters; refer to 2000 Report by Dr. Lobe; cited from earlier work

Row | Plasma Concentration in vivo after transfusion of one unit, Concept 2, assume 85% Removal [1] [µM] | Plasma Concentration in vivo after transfusion of one unit, Concept 1, assumes 75% Removal [1] [µM] | SMILES | Plasma Concentration in vivo after transfusion of one unit, Without Further Processing [2] [µM]
1 | 330 | 550 | CC(=O)C(=O)O [Pyruvate] | 2190
2 | 16 | 27 | Nc1ncnc2nc[nH]c12 [Adenine] | 110

Continued, compound first:

Row | SMILES | Plasma Concentration in vivo after transfusion of one unit, Concept 2, assume 85% Removal [1] [µM] | Plasma Concentration in vivo after transfusion of one unit, Concept 1, assumes 75% Removal [1] [µM] | Plasma Concentration in vivo after transfusion of one unit, Without Further Processing [2] [µM]
3 | CC(O)C(=O)O (stereo not drawn) [Lactate] | 330 | 550 | 2190
4 | O=c1[nH]cnc2nc[nH]c12 [Hypoxanthine] | 330 | 550 | 2190
5 | OC[C@H]1O[C@@H](n2cnc3c(O)ncnc32)[C@H](O)[C@@H]1O [Inosine] | 330 | 550 | 2190
6 | O=c1[nH]c(=O)c2[nH]c(=O)[nH]c2[nH]1 [Uric Acid] | 330 | 550 | 2190
